Assay type in all cases: cell-based, murine and human
What all share (conditions): 20-24 hours

For assay [1], the target named is T1, PPAR-gamma ligand binding domain fused to GAL4 DNA binding domain (UniProt P37231).
T1 sequence (P37231 1-505): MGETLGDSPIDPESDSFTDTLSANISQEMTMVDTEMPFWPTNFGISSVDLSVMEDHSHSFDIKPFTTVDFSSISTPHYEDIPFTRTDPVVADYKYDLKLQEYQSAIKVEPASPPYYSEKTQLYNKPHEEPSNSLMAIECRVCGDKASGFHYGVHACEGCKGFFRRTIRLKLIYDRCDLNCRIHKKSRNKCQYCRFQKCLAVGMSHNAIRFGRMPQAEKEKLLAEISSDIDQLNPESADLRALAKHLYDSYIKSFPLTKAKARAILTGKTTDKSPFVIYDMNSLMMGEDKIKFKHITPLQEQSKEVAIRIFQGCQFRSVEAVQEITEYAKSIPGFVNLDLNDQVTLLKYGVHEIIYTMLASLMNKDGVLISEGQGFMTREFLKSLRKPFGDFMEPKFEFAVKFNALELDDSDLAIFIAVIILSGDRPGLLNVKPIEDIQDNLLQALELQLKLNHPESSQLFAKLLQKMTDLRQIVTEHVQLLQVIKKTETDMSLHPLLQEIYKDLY
Briefly: Transient transfection transactivation assay in CV-1 cells, PPAR-gamma (GAL4 chimera, luciferase reporter). An excerpt: (§1) Compounds may be screened for functional potency in transient transfection assays in CV-1 cells for their ability to activate the PPAR subtypes (transactivation assay). A previously established chimeric receptor system was utilized to allow comparison of the relative transcriptional activity of the receptor subtypes on the same synthetic response element and to prevent endogenous receptor activation from complicating the interpretation of results. See, for example, Lehmann, J. M.; Moore, L. B.; Smith-Oliver, T. A; Wilkinson, W. O.; Willson, T. M.; Kliewer, S. A., An antidiabetic thiazolidinedione is a high affinity ligand for peroxisome proliferator-activated receptor […], J. Biol. Chem., 1995, 270, 12953-6. The ligand binding domains for murine and human PPAR-alpha, PPAR-gamma, and PPAR-delta are each fused to the yeast transcription factor GAL4 DNA binding domain. CV-1 cells were transiently transfected with expression vectors for the respective PPAR chimera along with a reporter construct containing four or five copies of the GAL4 DNA binding site driving expression of luciferase. After 8-16 h, the cells are replated into multi-well assay plates and the media is exchanged to phenol-red free DME medium supplemented with 5% delipidated calf serum. 4 hours after replating, cells were treated with either compounds or 1% DMSO for 20-24 hours. Luciferase activity was then assayed with Britelite (Perkin Elmer) following the manufacturer's protocol and measured with either the Perkin Elmer Viewlux or Molecular Devices Acquest (see, for example, Kliewer, S. A., et. al. Cell 1995, 83, 813-819). Rosiglitazone is used as a positive control in the PPARγ assay. Wy-14643 and GW7647 are used as positive controls in the PPARα assay. GW501516 is used as the positive control in the PPARδ assay.

For assay [2], the target named is T2, PPAR-delta ligand binding domain fused to GAL4 DNA binding domain (UniProt Q03181).
T2 sequence (Q03181 1-441): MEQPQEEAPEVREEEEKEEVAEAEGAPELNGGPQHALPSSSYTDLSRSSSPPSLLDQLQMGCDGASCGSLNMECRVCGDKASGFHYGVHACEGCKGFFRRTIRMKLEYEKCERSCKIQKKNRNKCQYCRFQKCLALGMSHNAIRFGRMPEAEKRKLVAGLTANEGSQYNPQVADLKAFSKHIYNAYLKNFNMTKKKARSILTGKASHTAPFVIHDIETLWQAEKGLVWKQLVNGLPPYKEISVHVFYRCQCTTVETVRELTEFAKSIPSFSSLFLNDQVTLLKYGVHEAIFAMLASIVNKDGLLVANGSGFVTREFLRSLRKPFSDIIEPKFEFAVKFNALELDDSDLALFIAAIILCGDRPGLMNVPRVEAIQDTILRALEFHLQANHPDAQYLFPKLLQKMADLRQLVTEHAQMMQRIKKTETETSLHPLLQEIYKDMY
The assay is described as follows: Transient transfection transactivation assay in CV-1 cells, PPAR-delta (GAL4 chimera, luciferase reporter).
From the text: as §1

Assay [3] has as its target T3, PPAR-alpha ligand binding domain fused to GAL4 DNA binding domain (UniProt Q07869).
T3 sequence (Q07869 1-468): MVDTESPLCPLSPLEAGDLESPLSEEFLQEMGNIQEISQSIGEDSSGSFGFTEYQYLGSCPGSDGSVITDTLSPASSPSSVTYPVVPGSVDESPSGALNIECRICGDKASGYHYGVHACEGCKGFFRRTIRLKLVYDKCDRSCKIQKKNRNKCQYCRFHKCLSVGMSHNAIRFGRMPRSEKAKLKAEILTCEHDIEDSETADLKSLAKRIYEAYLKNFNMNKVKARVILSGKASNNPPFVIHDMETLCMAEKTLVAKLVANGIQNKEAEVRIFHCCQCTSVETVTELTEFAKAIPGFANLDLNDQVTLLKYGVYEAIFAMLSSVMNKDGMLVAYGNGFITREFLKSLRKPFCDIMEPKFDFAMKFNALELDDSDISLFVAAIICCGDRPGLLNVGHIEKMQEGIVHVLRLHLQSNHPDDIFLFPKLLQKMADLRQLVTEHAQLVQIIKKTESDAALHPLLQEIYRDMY
Briefly: Transient transfection transactivation assay in CV-1 cells, PPAR-alpha (GAL4 chimera, luciferase reporter).
From the text: as §1

Turning to `O=C(O)C1Cc2cccc(S(=O)(=O)N3CCN(C(=O)Cc4ccc(OC(F)(F)F)cc4)CC3)c2C1` (stereo not drawn) [Example 19, 4-(4-(2-(4-(trifluoromethoxy)phenyl)acetyl)piperazin-1-ylsulfonyl)-2,3-dihydro-1H-indene-2-carboxylic acid], the EC50 in assay [1] is 5 to 100 µM; in assay [2], 5 to 100 µM; in assay [3], greater than 100 µM.

These data come from patent US20070270434A1, “SULFONYL-SUBSTITUTED BICYCLIC COMPOUNDS AS MODULATORS OF PPAR” (KALYPSYS, INC., priority 2006, published 2007).
